This series can be described thus: in vitro. As to conditions: human, hela cells, % viability.

The term viability denotes a read-out of living cells in per cent, often relative to untreated cells.

For the molecule `Clc1ccc(COc2ccc(/C=N/Nc3nc(N4CCOCC4)nc(N4CCOCC4)n3)cc2)c(Cl)c1` [CBK262061], the viability at 28.5 h, 10 µM was found to be 103%. As for `CCN1CCN(c2ccc(NC(=S)NC(=O)c3ccccc3Br)cc2)CC1` [CBK268583], the viability at 28.5 h, 10 µM is 102%. Same read-out and setting: then `COc1cc(/C=N\NC(=O)CSc2nc3ccccc3o2)ccc1O` [CBK263630], with 86.5%. The same measure, in the same setting: then `CCOC(=O)c1cnn2c(O)cc(CN3CCCCC3)nc12` [CBK305585], with 101%; and `COc1ccc(S(=O)(=O)NCCc2ccc(S(N)(=O)=O)cc2)cc1[N+](=O)[O-]` [CBK267598], with 94.1%. Still for that read-out and setting: then `Nc1nn2c(c1Cc1c(Cl)cccc1Cl)OCCC2` [CBK088843], with 92.8%; and `CC(Oc1ccc(C#N)cc1)C(=O)NCC(C)(C)N1CCOCC1` (stereo not shown) [CBK304066], with 90%. Turning to `COc1ncc(-c2nccnc2NCCc2ccncc2)c(OC)n1` [CBK038074], the viability at 28.5 h, 10 µM stood at 96.7%. Take `c1ccc(-c2c(-c3ccccc3)n(Cc3ccco3)c3ncn4nc(-c5cccnc5)nc4c23)cc1` [CBK265374]: the viability at 28.5 h, 10 µM is 100%. The same measure, in the same setting: then `CC(CCc1ccccc1)NC(=O)c1ccccc1C(=O)O` (stereo not shown) [CBK286940], with 94.5%; and `O=C(Cc1c[nH]c2ccccc12)N1CCC2(CCN(C(=O)CC3CCCCC3)C2)C1` (stereo not shown) [CBK131422], with 88.3%; and `COC(=O)c1ccc(OCc2nnn[nH]2)cc1` [CBK269544], with 88.7%.

For `CC(C)c1ccc(NC(=O)CSc2nnc(Cc3cccc4ccccc34)o2)cc1` [CBK267371], the viability at 28.5 h, 10 µM came out at 88.7%. As to `COc1ccc(NC(=O)CN2CCN(S(=O)(=O)N(C)C)CC2)cc1` [CBK267465], the viability at 28.5 h, 10 µM stood at 93.3%. Take `CCc1c(-c2cccc(C(=O)N3CCS(=O)(=O)CC3)c2)cnn1C` [CBK307487]: the viability at 28.5 h, 10 µM was 75.3%. On to `COc1ccc(CNCc2ccc(Cl)cc2)cc1OC` [CBK263315], for which the viability at 28.5 h, 10 µM was 95.4%.

Turning to `Nc1ncncc1-c1ccc(Cl)cc1` [CBK012407], the viability at 28.5 h, 10 µM was determined as 90.9%.

Regarding `CN1CCCN(c2cncc(-c3cccc(OC(F)(F)F)c3)n2)CC1` [CBK065949], the viability at 28.5 h, 10 µM came out at 102%.

`O=C1Nc2ccc(/C=C/c3ccccc3)cc2C(=O)N2CC[C@H](NC(=O)N3CCOCC3)[C@@H]12` [CBK289344]: the viability at 28.5 h, 10 µM was 98.1%. Same read-out and setting: then `Cc1ccc(-c2nnc(S)n2/N=C\c2ccccc2OCC(=O)O)cc1` [CBK264408], with 90.7%. Take `Nc1nc(-c2ccccc2I)n[nH]1` [CBK027413]: the viability at 28.5 h, 10 µM came to 93.4%. Still for that read-out and setting: then `CN1C(=O)c2ccccc2OCCCCC[C@H]2NCCC[C@H]21` [CBK292075], with 110%; and `CN(C)CCN(Cc1ccccc1)C(=O)NCc1ccc(C#N)cc1` [CBK155097], with 89.2%. Same read-out and setting: then `CC1c2ccsc2CCN1C(=O)COc1ccc(Br)cc1` (stereo not shown) [CBK304999], with 98%. On the same count and under the same terms, then `CN(C)S(=O)(=O)c1ccc(C(=O)C2=C(O)C(=O)N(CCN3CCOCC3)C2c2ccco2)cc1` (stereo not shown) [CBK264521], with 93.4%; and `C=C(C)C(=O)OCCOC(=O)c1cc(N)cc(N)c1` [CBK261389], with 101%.

On to `COc1ccc2c(c1)CCN=C2C[C@H]1CN(C(=O)NC(C)C)CC[C@H]1CC(=O)O` [CBK289156], for which the viability at 28.5 h, 10 µM came to 90%. For the molecule `CN(C(=O)CN1CCN(c2cc(-c3cc4ccccc4o3)ncn2)CC1)c1ccccc1` [CBK091128], the viability at 28.5 h, 10 µM is 94%. Same read-out and setting: then `O=C(Cn1cnc2ccccc2c1=O)NCCc1ccsc1` [CBK287844], with 92.6%; and `O=S(=O)(Nc1nc2c(s1)CCCC2)c1ccc(Br)cc1` [CBK097787], with 89.7%; and `Cc1cccc2cc3c(nc12)OCCN(C)C3` [CBK285192], with 89.1%. With `Cn1c(SCC(=O)N2CCN(Cc3ccccc3)CC2)nnc1-c1cccc([N+](=O)[O-])c1` [CBK267154], the viability at 28.5 h, 10 µM worked out at 90.6%.

With `Cc1cccc(-n2c(C3CCCNC3=O)n[nH]c2=S)c1` (stereo not shown) [CBK012842], the viability at 28.5 h, 10 µM came to 89%. On the same count and under the same terms, then `Cc1cc(Cc2ccccc2F)cc(C2CCN(C(=O)c3nc4ccc(F)cc4[nH]3)CC2)n1` [CBK285932], with 120%; and `O=C(Cc1csc(-c2ccsc2)n1)Nc1nc2c(s1)CCC2` [CBK297935], with 96.8%; and `CCCNc1cncc(-c2cccc(O)c2)n1` [CBK065447], with 109%.

Regarding `COC(=O)CCc1ccc(S(=O)(=O)N2CCN(Cc3cc(C)c(O)c(C)c3)CC2)cc1` [CBK062814], the viability at 28.5 h, 10 µM worked out at 113%. For the molecule `O=C(c1cncnc1)N1CCCc2ccccc21` [CBK200259], the viability at 28.5 h, 10 µM was 91.4%. On the same count and under the same terms, then `CCSc1nc(-c2ccncc2)ccc1C#N` [CBK288539], with 75.2%; and `O=S(=O)(O)c1cccc2cccc(I)c12` [CBK301197N], with 89.1%. Same read-out and setting: then `CN1CCN(C(=O)CC[C@@H]2CNC(=O)[C@@H]3C[C@H](NC(=O)c4cccc(F)c4)CN23)CC1` [CBK289015], with 92.2%; and `CS(=O)(=O)N1CCC(C(=O)NC(c2ccccc2)c2cnccn2)CC1` (stereo not shown) [CBK059901], with 105%. The same measure, in the same setting: then `CNS(=O)(=O)c1cccc(C(C)NC(=O)N2CCC2)c1` (stereo not shown) [CBK306257], with 87.1%. On to `CCC(=O)Nc1ccc2oc(-c3cccc(C)c3)nc2c1` [CBK263065], for which the viability at 28.5 h, 10 µM is 89.6%. As for `O=C(Nc1ccc2oc(-c3cccnc3)nc2c1)c1ccc(Br)o1` [CBK263436], the viability at 28.5 h, 10 µM was determined as 112%. Still for that read-out and setting: then `Cc1ccc(Oc2ccc(S(=O)(=O)N3CCOCC3)cc2C(=O)O)cc1` [CBK286748], with 90.4%.

Consider `CCOC(=O)C1(C2CCCCC2)CCN(C(=O)COc2ccccc2OC)CC1` [CBK136928], for which the viability at 28.5 h, 10 µM was 96.7%. Regarding `O=C(O)CCCSCC(=O)Nc1ccccc1` [CBK276905], the viability at 28.5 h, 10 µM stood at 88.4%.

Turning to `O=C(NC(C(=O)N/N=C/c1ccccc1O)c1n[nH]c(=O)c2ccccc12)c1ccccc1` (stereo not shown) [CBK261117], the viability at 28.5 h, 10 µM came out at 113%.

`O=C(Nc1nccc(N2CCNCC2)n1)C1CCCC1` [CBK004302T]: the viability at 28.5 h, 10 µM came out at 113%. On to `CCOC(=O)c1cccc(NS(=O)(=O)c2ccc(NC(C)=O)cc2)c1` [CBK034349], for which the viability at 28.5 h, 10 µM was 78.8%. Same read-out and setting: then `CCCC(=O)c1ccc(S(=O)(=O)N2CCN(Cc3ccc4cccc(O)c4n3)CC2)cc1` [CBK063158], with 102%. For the molecule `O=C(NCCCNc1ccc([N+](=O)[O-])cc1)c1cccs1` [CBK066825], the viability at 28.5 h, 10 µM was found to be 94.1%. As to `O=C(O)c1ccc(NC(=O)c2cn(-c3ccccc3)nc2-c2cc3ccccc3o2)cc1` [CBK266587C], the viability at 28.5 h, 10 µM turned out to be 106%.

As for `O=C(NCCCN1CCN(Cc2ccccc2)CC1)c1cn2cc(C(F)(F)F)cc(Cl)c2n1` [CBK074654], the viability at 28.5 h, 10 µM stood at 89.3%. With `CCNC(=S)N[C@H]1CC[C@@]2(Cc3ccc(OC)cc3)CCN(C)[C@H]2C1` [CBK004257], the viability at 28.5 h, 10 µM worked out at 101%. Take `Cc1ccc2[nH]c(C)c(CC(=O)N(C)CCN3CCCCC3)c2c1` [CBK282749]: the viability at 28.5 h, 10 µM is 87.8%. Take `O=C1NC2(CCN(C(=O)c3ccc(C(F)(F)F)c(F)c3)CC2)Oc2ccc(-c3ccccc3)cc21` [CBK115841]: the viability at 28.5 h, 10 µM was 99.7%.

On to `CCn1cc(-c2cncn2CC(C)n2nc(C)cc2C)cn1` (stereo not shown) [CBK281775], for which the viability at 28.5 h, 10 µM worked out at 87.1%.

Turning to `CC(C)c1ccc(C(C)NC(=O)Cn2cc(C(=O)NC3CCCC3)ccc2=O)cc1` (stereo not shown) [CBK286121], the viability at 28.5 h, 10 µM worked out at 103%. Same read-out and setting: then `O=C(CN1C(=O)N2CCCN=C2c2ccccc21)N1CCCCC1` [CBK284395], with 85.8%; and `COc1cc(C(=O)N2CCC3(CCN(C(=O)Cc4c[nH]c5ccccc45)C3)C2)cc(OC)c1OC` (stereo not shown) [CBK131448], with 86.7%. On the same count and under the same terms, then `CC(Cn1cncn1)C(=O)NC(C)C1CC2CCC1C2` (stereo not shown) [CBK282089], with 109%; and `COc1ccccc1C1NC(=O)COC12CCN(Cc1ccccc1)CC2` (stereo not shown) [CBK092265], with 109%; and `CC(C)(C)C(=O)N1CCC(c2[nH]ncc2-c2ccncc2)CC1` [CBK284211], with 88.2%. For the molecule `C=C(C)Cn1c(Cc2ccccc2)nnc1SC(C)C` [CBK200083], the viability at 28.5 h, 10 µM stood at 92%. On the same count and under the same terms, then `CCC1CCCCN1C(=O)c1ccc(C)s1` (stereo not shown) [CBK084526], with 96.6%; and `COC(=O)CC1C(=O)NCCN1C(=O)COc1ccc(Cl)cc1` (stereo not shown) [CBK264938], with 80%; and `COc1ccc(S(=O)(=O)N2CCN(C(=O)c3ccc(C(C)(C)C)cc3)CC2)cc1` [CBK157251], with 111%. Same read-out and setting: then `O=C(Cn1cnc2c(F)cc(Br)cc2c1=O)N1CCOC2CCCCC21` (stereo not shown) [CBK305229], with 89.2%; and `Cc1ccccc1Nc1nc(N)nc(CN(CCC#N)CC2CCC2)n1` [CBK305308], with 89.3%; and `Cc1cc(C)n(CCN2CCC(N(C)Cc3nnc(C)n3C)C2)n1` (stereo not shown) [CBK304449], with 94.3%. On to `COc1ccc([C@@]23CC[C@@H](NC(=O)Nc4c(F)cc(F)cc4Cl)C[C@@H]2N(C)CC3)cc1OC` [CBK073740T], for which the viability at 28.5 h, 10 µM is 112%. For the molecule `OC(COc1cccc2c1CCCC2)CN1CCC(Cc2ccccc2)CC1` (stereo not shown) [CBK003829], the viability at 28.5 h, 10 µM is 94.7%. For `O=C(Cn1nnc2ccccc2c1=O)NC1CCN2CCCCC12` (stereo not shown) [CBK305589], the viability at 28.5 h, 10 µM stood at 105%.

Regarding `O=C(CSCC(=O)c1ccc(F)cc1)Nc1ccc2ccccc2c1` [CBK263264], the viability at 28.5 h, 10 µM turned out to be 88.1%.

Regarding `COc1cc(SC)ccc1C(=O)N[C@H]1CCN2C(=O)[C@@H](CC(=O)O)NC(=O)[C@@H]2C1` [CBK289555], the viability at 28.5 h, 10 µM came out at 108%. As for `N#CC1(c2ccccc2)CCN(C(=O)COc2ccc(F)cc2)CC1` [CBK091387], the viability at 28.5 h, 10 µM (bulk resorufin, single well) is 92.6%. Consider `Nc1nc2n(n1)C(c1ccccc1)C1=C(CCCC1)N2` (stereo not shown) [CBK287949], for which the viability at 28.5 h, 10 µM was determined as 107%.

The record behind these values is publication PMC12040169 (PLOS Biology, 2025).
